Reference: paper PMC8330742, “New benzothieno[2,3-c]pyridines as non-steroidal CYP17 inhibitors: design, synthesis, anticancer screening, apoptosis induction, and in silico ADME profile studies” (Journal of Enzyme Inhibition and Medicinal Chemistry, 2021)

Tests used:
HCT-15 = assay: NCI-60 SRB screen; type: cell-based, human; conditions: Homo sapiens; single dose 10^−5 M; HCT-15, Colon cancer; read-out: Growth inhibition (%)
HCT-116 = assay: NCI-60 SRB screen; type: cell-based, human; conditions: Homo sapiens; single dose 10^−5 M; HCT-116, Colon cancer; read-out: Growth inhibition (%)
SR = assay: NCI-60 SRB screen; type: cell-based; conditions: Homo sapiens, single dose 10^−5 M, Leukaemia, read-out: Growth inhibition (%)
SK-OV-3 = assay: NCI-60 SRB screen; type: cell-based, human; conditions: Homo sapiens; single dose 10^−5 M; SK-OV-3, Ovarian cancer; read-out: Growth inhibition (%)
SF-295 = assay: NCI-60 SRB screen; type: cell-based, human; conditions: Homo sapiens; single dose 10^−5 M; SF-295, CNS cancer; read-out: Growth inhibition (%)
LOX IMVI = assay: NCI-60 SRB screen; type: cell-based, human; conditions: Homo sapiens, single dose 10^−5 M, Melanoma, read-out: Growth inhibition (%)
K-562 = assay: NCI-60 SRB screen; type: cell-based, human; conditions: Homo sapiens, K562; single dose 10^−5 M; K-562, Leukaemia; read-out: Growth inhibition (%)
TK-10 = assay: NCI-60 SRB screen; type: cell-based, human; conditions: Homo sapiens; single dose 10^−5 M; TK-10, Renal cancer; read-out: Growth inhibition (%)
HOP-62 = assay: NCI-60 SRB screen; type: cell-based, human; conditions: Homo sapiens; single dose 10^−5 M; HOP-62, Non-small cell lung carcinoma; read-out: Growth inhibition (%)
MDA-MB-435 = assay: NCI-60 SRB screen; type: cell-based; conditions: Homo sapiens, MDA-MB-435, read-out: Growth inhibition (%)
IGROV1 = assay: NCI-60 SRB screen; type: cell-based, human; conditions: Homo sapiens, IGROV-1; single dose 10^−5 M; IGROV1, Ovarian cancer; read-out: Growth inhibition (%)
SK-MEL-5 = assay: NCI-60 SRB screen; type: cell-based, human; conditions: Homo sapiens; single dose 10^−5 M; SK-MEL-5, Melanoma; read-out: Growth inhibition (%)
NCI-H322M = assay: NCI-60 SRB screen; type: cell-based, human; conditions: Homo sapiens, single dose 10^−5 M, Non-small cell lung carcinoma, read-out: Growth inhibition (%)
UO-31 = assay: NCI-60 SRB screen; type: cell-based, human; conditions: Homo sapiens; single dose 10^−5 M; UO-31, Renal cancer; read-out: Growth inhibition (%)
CCRF-CEM = assay: NCI-60 SRB screen; type: cell-based; conditions: Homo sapiens, single dose 10^−5 M, Leukaemia, read-out: Growth inhibition (%)
M14 = assay: NCI-60 SRB screen; type: cell-based, human; conditions: Homo sapiens; single dose 10^−5 M; M14, Melanoma; read-out: Growth inhibition (%)
SK-MEL-28 = assay: NCI-60 SRB screen; type: cell-based; conditions: Homo sapiens; single dose 10^−5 M; SK-MEL-28, Melanoma; read-out: Growth inhibition (%)
786-0 = assay: NCI-60 SRB screen; type: cell-based; conditions: Homo sapiens; single dose 10^−5 M; 786-0, Renal cancer; read-out: Growth inhibition (%)
NCI-H522 = assay: NCI-60 SRB screen; type: cell-based, human; conditions: Homo sapiens; single dose 10^−5 M; NCI-H522, Non-small cell lung carcinoma; read-out: Growth inhibition (%)
NCI-H23 = assay: NCI-60 SRB screen; type: cell-based, human; conditions: Homo sapiens; single dose 10^−5 M; NCI-H23, Non-small cell lung carcinoma; read-out: Growth inhibition (%)
HCC-2998 = assay: NCI-60 SRB screen; type: cell-based, human; conditions: Homo sapiens; single dose 10^−5 M; HCC-2998, Colon cancer; read-out: Growth inhibition (%)
MALME-3M = assay: NCI-60 SRB screen; type: cell-based, human; conditions: Homo sapiens, single dose 10^−5 M, Melanoma, read-out: Growth inhibition (%)
MOLT-4 = assay: NCI-60 SRB screen; type: cell-based; conditions: Homo sapiens; single dose 10^−5 M; MOLT-4, Leukaemia; read-out: Growth inhibition (%)
SK-MEL-2 = assay: NCI-60 SRB screen; type: cell-based, human; conditions: Homo sapiens; single dose 10^−5 M; SK-MEL-2, Melanoma; read-out: Growth inhibition (%)
ACHN = assay: NCI-60 SRB screen; type: cell-based; conditions: Homo sapiens, single dose 10^−5 M, Renal cancer, read-out: Growth inhibition (%)
SN12C = assay: NCI-60 SRB screen; type: cell-based, human; conditions: Homo sapiens, SN12C; single dose 10^−5 M; SN 12 C, Renal cancer; read-out: Growth inhibition (%)
SF-268 = assay: NCI-60 SRB screen; type: cell-based, human; conditions: Homo sapiens; single dose 10^−5 M; SF-268, CNS cancer; read-out: Growth inhibition (%)
EKVX = assay: NCI-60 SRB screen; type: cell-based, human; conditions: Homo sapiens, single dose 10^−5 M, Non-small cell lung carcinoma, read-out: Growth inhibition (%)
A549/ATCC = assay: NCI-60 SRB screen; type: cell-based, human; conditions: Homo sapiens, single dose 10^−5 M, Non-small cell lung carcinoma, read-out: Growth inhibition (%)
HL-60(TB) = assay: NCI-60 SRB screen; type: cell-based, human; conditions: Homo sapiens; single dose 10^−5 M; HL-60(TB), Leukaemia; read-out: Growth inhibition (%)
SW-620 = assay: NCI-60 SRB screen; type: cell-based; conditions: Homo sapiens; single dose 10^−5 M; SW-620, Colon cancer; read-out: Growth inhibition (%)
OVCAR-3 = assay: NCI-60 SRB screen; type: cell-based, human; conditions: Homo sapiens; single dose 10^−5 M; OVCAR-3, Ovarian cancer; read-out: Growth inhibition (%)
NCI-H460 = assay: NCI-60 SRB screen; type: cell-based, human; conditions: Homo sapiens; single dose 10^−5 M; NCI-H460, Non-small cell lung carcinoma; read-out: Growth inhibition (%)
NCI/ADR-RES = assay: NCI-60 SRB screen; type: cell-based, human; conditions: Homo sapiens, single dose 10^−5 M, Ovarian cancer, read-out: Growth inhibition (%)
OVCAR-4 = assay: NCI-60 SRB screen; type: cell-based, human; conditions: Homo sapiens; single dose 10^−5 M; OVCAR-4, Ovarian cancer; read-out: Growth inhibition (%)
COLO 205 = assay: NCI-60 SRB screen; type: cell-based, human; conditions: Homo sapiens; single dose 10^−5 M; COLO 205, Colon cancer; read-out: Growth inhibition (%)
NCI-H226 = assay: NCI-60 SRB screen; type: cell-based, human; conditions: Homo sapiens; single dose 10^−5 M; NCI-H226, Non-small cell lung carcinoma; read-out: Growth inhibition (%)
HOP-92 = assay: NCI-60 SRB screen; type: cell-based, human; conditions: Homo sapiens; single dose 10^−5 M; HOP-92, Non-small cell lung carcinoma; read-out: Growth inhibition (%)
KM12 = assay: NCI-60 SRB screen; type: cell-based, human; conditions: Homo sapiens; single dose 10^−5 M; KM12, Colon cancer; read-out: Growth inhibition (%)
UACC-62 = assay: NCI-60 SRB screen; type: cell-based, human; conditions: Homo sapiens; single dose 10^−5 M; UACC-62, Melanoma; read-out: Growth inhibition (%)
[1] = tested on: panel of 60 cancer cell lines; assay: NCI-60 SRB screen, mean or range over the panel; type: cell-based, human; conditions: Homo sapiens; mean over the cell lines; single dose 10^−5 M; read-out: Mean growth inhibition (%)
RXF 393 = assay: NCI-60 SRB screen; type: cell-based, human; conditions: Homo sapiens; single dose 10^−5 M; RXF 393, Renal cancer; read-out: Growth inhibition (%)
CAKI-1 = assay: NCI-60 SRB screen; type: cell-based, human; conditions: Homo sapiens; single dose 10^−5 M; CAKI-1, Renal cancer; read-out: Growth inhibition (%)
UACC-257 = assay: NCI-60 SRB screen; type: cell-based, human; conditions: Homo sapiens; single dose 10^−5 M; UACC-257, Melanoma; read-out: Growth inhibition (%)
HT-29 = assay: NCI-60 SRB screen; type: cell-based; conditions: Homo sapiens; single dose 10^−5 M; HT-29, Colon cancer; read-out: Growth inhibition (%)

N#CC1=C(Nc2ccccc2F)NC(c2cccc([N+](=O)[O-])c2)c2sc3c(F)cccc3c21 (stereo not drawn) [Compound 10, 4-Cyano-8-fluoro-3((2-fluorophenyl)amino)-1–(3-nitrophenyl)-1,2-dihydro[1]benzothieno[2,3-c]pyridine]
inhibition at 10 µM (HCT-15): -5.46%
inhibition at 10 µM (HCT-116): 3.44%
inhibition at 10 µM (SR): 13%
inhibition at 10 µM (SK-OV-3): 10.1%
inhibition at 10 µM (SF-295): -4.19%
inhibition at 10 µM (LOX IMVI): 3.26%
inhibition at 10 µM (K-562): 2.72%
inhibition at 10 µM (TK-10): -55.4%
inhibition at 10 µM (HOP-62): 8.27%
inhibition at 10 µM (MDA-MB-435): -4.45%
inhibition at 10 µM (IGROV1): 16.1%
inhibition at 10 µM (SK-MEL-5): -19.6%
inhibition at 10 µM (NCI-H322M): -0.11%
inhibition at 10 µM (UO-31): 31.2%
inhibition at 10 µM (CCRF-CEM): 2.96%
inhibition at 10 µM (M14): 1.68%
inhibition at 10 µM (SK-MEL-28): -11%
inhibition at 10 µM (786-0): -12.3%
inhibition at 10 µM (NCI-H522): -2.13%
inhibition at 10 µM (NCI-H23): -1.96%
inhibition at 10 µM (HCC-2998): -20.3%
inhibition at 10 µM (MALME-3M): -15.1%
inhibition at 10 µM (MOLT-4): 6.48%
inhibition at 10 µM (SK-MEL-2): 0.67%
inhibition at 10 µM (ACHN): 9.97%
inhibition at 10 µM (SN12C): 0.49%
inhibition at 10 µM (SF-268): 4.7%
inhibition at 10 µM (EKVX): 9.27%
inhibition at 10 µM (A549/ATCC): -7.45%
inhibition at 10 µM (HL-60(TB)): -13.1%
inhibition at 10 µM (SW-620): 2.45%
inhibition at 10 µM (OVCAR-3): -1.64%
inhibition at 10 µM (NCI-H460): -1.1%
inhibition at 10 µM (NCI/ADR-RES): -8.27%
inhibition at 10 µM (OVCAR-4): -3.9%
inhibition at 10 µM (COLO 205): -13.3%
inhibition at 10 µM (NCI-H226): 12.8%
inhibition at 10 µM (HOP-92): 9.6%
inhibition at 10 µM (KM12): 0.14%
inhibition at 10 µM (UACC-62): 6.75%
inhibition at 10 µM [1]: -0.095%
inhibition at 10 µM (RXF 393): -5.32%
inhibition at 10 µM (CAKI-1): 21.1%
inhibition at 10 µM (UACC-257): -23.2%
inhibition at 10 µM (HT-29): -14.2%
